From US20140256663A1, “Amphotericin Analogous Compounds and Pharmaceutical Compositions Containing Them” (CENTRO DE INVESTIGACION Y DE ESTUDIOS AVANZADOS DEL …, priority 2010, published 2014)
≈ marks a conversion by molar mass, not a printed value. Entries after “also recorded” stand apart in the source; their conditions may differ. Read-outs that look alike come from different tables or passages of the source.

Key:
[1] = 10 μM AmB; from Venegas et al.; cited from earlier work
Candida albicans (10231) = conditions: Preobrazhenskaya M; cited from earlier work
[2] = comparison value, source not given; cited from earlier work
[3] = Unit channel studies in chicken egg lecithin bilayers with ergosterol; conditions: AmB 2 μM; 30° C.
Protocol: Unit channel studies were performed according to procedures described earlier (Cotero, et al., supra, Venegas, et al., supra). Required liposomal suspensions were prepared using lecithin with cholesterol or ergosterol. These suspensions were placed in an ultrasonic bath for 15 minutes to produce unilamellar vesicles. Subsequently, the suspension was placed in a 100 μl eppendorf and a lipid bilayer was formed on the tip of a micro-electrode. The unit channels of amphotericin and of the invented compounds were incorporated to this bilayer. The unit channel current of the various compounds was recorded with an electrometer, and then these records were analyzed by determining the activity of the compounds and the characteristics of the channels formed.
The activity is determined by the presence of the various channels formed by polyenes in the lipid bilayer (Cotero, et al., supra, Venegas, et al., supra). […] This conductance is the effect of all the channels present and was determined by the unit channel technique earlier described.

[4] = system: Candida albicans ATCC 10231; experiment: Antifungal activity in vitro by flow cytometry, Candida albicans ATCC 10231; format: cell-based; conditions: ATCC10231, 24 h at 37° C., read-out: CF50 Candida albicans ATCC 10231
Protocol: (§1) The antifungal activity of the polyene macrolide derivate of the present invention was determined by flow cytometry method earlier described (Pinto et al., J. Medical Microbiology, 2009; 58, 1454-1462; Pina-Vaz and Rodriguez, Methods Mol. Biol. 2010; 638:281-289). For the test two strains of Candida albicans (ATCC 10231 and 752) and Candida kruzei were used. A cellular suspension of 1×10^6 UFC/mL was used, which has sown in 96-well plates. […] As controls were used: untreated yeasts (control of living cells), yeasts exposed to UV radiation (arrest, inhibition of proliferation), and yeasts exposed at temperature of 100° C. (dead yeasts). Cells were collected by centrifugation at 10,000×g for 10 min, they were washed once in phosphate buffer. […] of propidium iodide 0.1 mg/mL were added to the cell suspension. It was incubated during 30 minutes at room temperature and protected from light. Finally, the samples were analyzed by flow cytometry (Becton-Dickinson Facsc Calibur, laser argon 480 nm). The intrinsic parameters and fluorescence in the FL2 channel (yellow/orange fluorescence) for FUN and channel FL3 (red fluorescence, filter 630 nm) for propidium iodide were acquired and registered on a logarithmic scale for a minimum of 7500 events per sample. For data analysis, the quadrants were adjusted in a plot of data lines of fluorescence intensity of samples. […] These quadrants were used to quantify the percentile of cells showing altered fluorescence compared to drug-free controls.

physchem = conditions: DMSO, organic solvent or mixture
Candida albicans DSY294 = conditions: Carreira E.; cited from earlier work
Candida kruzei = experiment: Antifungal activity in vitro by flow cytometry, Candida kruzei; format: cell-based; conditions: read-out: CF50 Candida kruzei
Protocol: as §1

[5] = system: Candida albicans ATCC 752; experiment: Antifungal activity in vitro by flow cytometry, Candida albicans ATCC 752; format: cell-based; conditions: read-out: CF50 Candida albicans ATCC 752
Protocol: as §1

[6] = system: Saccharomyces cerevisae FY833(SC) cells compared with human renal cells 293Q; conditions: FIG. 3
[7] = system: Saccharomyces cerevisae FY833(SC) cells; experiment: Viability of Saccharomyces cerevisae FY833 (SC) cells at various concentrations; format: cell-based; conditions: FIG. 1, various concentrations; listed as amide 7
Protocol: All derivatives were tested for antibiotic activity in yeast cultures of S. cerevisiae.

Structure (SMILES)	Opening probability, channel type I [1] [%]	Opening probability, channel type II [1] [%]	Opening probability, channel type III [1] [%]	Opening probability, channel type IV [1] [%]	Opening probability, channel type V [1] [%]	Opening probability, channel type VI [1] [%]	MIC50-Candida albicans (10231) (Candida albicans (10231)) [µg/mL]	solubility of AmB [2] [µg/mL]	Average conductance ergosterol [3] [fS]	IC50 [4] [µM]	solubility (physchem) [mM]	MIC-Candida albicans DSY294 (Candida albicans DSY294) [mM]	IC50 (Candida kruzei; 24 h at 37° C.) [µM]	IC50 ([5]; ATCC752, 24 h at 37° C.) [µM]	advantage of selectivity over AmB (factor) [6]	inhibitory capacity / potency on SC cells compared to AmB [7]	IC50 (Candida kruzei; 24 h) [µM]	IC50 ([5]; ATCC752, 24 h) [µM]
C[C@@H]1[C@H](O)[C@@H](C)/C=C/C=C/C=C/C=C/C=C/C=C/C=C/[C@H](O[C@@H]2O[C@H](C)[C@@H](O)[C@H](N)[C@@H]2O)C[C@@H]2O[C@](O)(C[C@@H](O)C[C@@H](O)[C@H](O)CC[C@@H](O)C[C@@H](O)CC(=O)O[C@H]1C)C[C@H](O)[C@H]2C(=O)O [AmB, Amphotericin B]	0.59	0.26	0.08	4.06	1.81	0.93	0.11 (≈ 0.119 µM)	10	600 ± 210	0.2	≤ 20	0.0004 (≈ 0.37 µg/mL)	> 10	1				
COC(=O)[C@@H](Cc1c[nH]c2ccccc12)NC(=O)[C@@H]1C(O)C[C@@]2(O)C[C@@H](O)C[C@@H](O)[C@H](O)CC[C@@H](O)C[C@@H](O)CC(=O)OC(C)C(C)[C@H](O)C(C)/C=C/C=C/C=C/C=C/C=C/C=C/C=C/[C@H](OC3OC(C)C(O)C(N)C3O)CC1O2 (stereo partly drawn) [A-7, N-(D)-tryptophanamide of AmB]															4	the most similar; also recorded: the highest power of the derivatives	> 10	8.2
